Here are results for 20 molecules from ChEMBL document CHEMBL4480376, “Studies on spiro[4.5]decanone prolyl hydroxylase domain inhibitors” (Medchemcomm, 2019).

In general, IC50 refers to the concentration needed to halve the response being measured. Read a low IC50 as inhibition by little substance.

Assay [1] deals with Egl nine homolog 1 (Homo sapiens) (UniProt Q9GZT9). Nature of the assay: Inhibition of N-terminal His6-tagged truncated PHD2 (181 to 426 residues) (unknown origin) expressed in Escherichia coli BL21 DE3 using H1F1-alpha NODD as substrate preincubated for 15 mins followed by substrate addition and measured after 15 mins by mass spectrometry.
Assay [2] has the same target. The experiment in a line: Inhibition of N-terminal His6-tagged truncated PHD2 (181 to 426 residues) (unknown origin) expressed in Escherichia coli BL21 DE3 using H1F1-alpha CODD as substrate preincubated for 15 mins followed by substrate addition and measured after 15 mins by mass spectrometry.
For assay [3], the target named is T1, Lysine-specific demethylase 4A (Homo sapiens, UniProt O75164).
T1 sequence (O75164 whole entry): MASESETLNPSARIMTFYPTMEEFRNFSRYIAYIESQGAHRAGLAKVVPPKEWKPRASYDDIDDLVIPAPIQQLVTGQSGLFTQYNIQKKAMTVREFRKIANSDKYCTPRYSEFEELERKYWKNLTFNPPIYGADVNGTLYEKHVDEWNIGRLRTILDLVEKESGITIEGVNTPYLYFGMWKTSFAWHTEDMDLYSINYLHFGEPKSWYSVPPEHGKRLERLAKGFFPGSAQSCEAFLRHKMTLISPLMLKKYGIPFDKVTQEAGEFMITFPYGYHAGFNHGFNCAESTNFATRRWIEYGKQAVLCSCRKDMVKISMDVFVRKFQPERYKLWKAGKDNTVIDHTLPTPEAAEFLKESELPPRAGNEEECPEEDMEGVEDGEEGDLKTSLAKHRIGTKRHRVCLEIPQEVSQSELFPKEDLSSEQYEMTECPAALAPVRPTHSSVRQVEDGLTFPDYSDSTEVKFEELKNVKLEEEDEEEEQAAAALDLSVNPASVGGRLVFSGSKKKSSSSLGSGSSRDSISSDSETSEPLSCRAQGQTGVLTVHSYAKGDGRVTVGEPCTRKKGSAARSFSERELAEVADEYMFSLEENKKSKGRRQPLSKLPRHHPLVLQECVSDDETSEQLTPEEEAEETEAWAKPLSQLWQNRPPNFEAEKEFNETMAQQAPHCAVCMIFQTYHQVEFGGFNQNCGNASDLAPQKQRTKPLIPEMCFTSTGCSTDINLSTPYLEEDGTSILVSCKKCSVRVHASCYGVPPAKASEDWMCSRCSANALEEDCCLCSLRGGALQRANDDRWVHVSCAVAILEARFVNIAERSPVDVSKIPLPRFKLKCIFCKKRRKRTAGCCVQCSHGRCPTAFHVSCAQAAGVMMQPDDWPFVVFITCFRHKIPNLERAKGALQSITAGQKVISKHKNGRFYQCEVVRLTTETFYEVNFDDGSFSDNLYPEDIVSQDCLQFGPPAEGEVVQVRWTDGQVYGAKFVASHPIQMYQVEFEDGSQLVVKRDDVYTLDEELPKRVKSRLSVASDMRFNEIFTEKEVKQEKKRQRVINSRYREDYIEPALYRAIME
Nature of the assay: Inhibition of KDM4A (unknown origin) using H3 K9Me3 (1 to 15 residues) as substrate.

A short description of assay [4]: Inhibition of FIH (unknown origin) using HIF-1alpha CAD (D788 to L822 residues) as substrate. Set-up: species or system Homo sapiens.

The structures appear in SMILES notation. Active and inactive are the calls of the source. The calls are words filed in the database; no cut-off is given here.

Sequence of Egl nine homolog 1 (Homo sapiens) (Q9GZT9 2-426 limits assumed): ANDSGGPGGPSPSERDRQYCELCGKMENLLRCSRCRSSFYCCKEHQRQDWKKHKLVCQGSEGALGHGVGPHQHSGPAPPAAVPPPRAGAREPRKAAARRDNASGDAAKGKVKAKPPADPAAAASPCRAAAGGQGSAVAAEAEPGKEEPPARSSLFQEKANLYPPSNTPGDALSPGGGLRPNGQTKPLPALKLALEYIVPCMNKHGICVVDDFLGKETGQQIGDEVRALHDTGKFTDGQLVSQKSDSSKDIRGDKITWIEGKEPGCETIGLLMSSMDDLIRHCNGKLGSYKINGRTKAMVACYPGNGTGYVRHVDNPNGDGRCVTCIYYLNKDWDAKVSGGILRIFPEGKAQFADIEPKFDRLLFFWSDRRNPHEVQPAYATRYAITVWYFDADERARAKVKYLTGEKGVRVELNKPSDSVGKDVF

Consider `O=C(Nc1ccc(-c2ccccc2)cc1)C1CCN(Cc2ccccc2O)CC1`, for which the inhibition entry in assay [1] and in assay [2] was “inactive” each time.
Take `COc1cccc(CN2CCC3(CC2)C(=O)N(c2ccc(-c4ccccc4)cc2)C(=O)N3c2ncccn2)n1`: the 50% inhibitory concentration (IC50) in assay [3] and in assay [4] was greater than 25 µM throughout.
As to `Cc1cccnc1CN1CCC(C(=O)Nc2ccc(-c3ccccc3)cc2)CC1`, the inhibition entry in assay [1] and in assay [2] was “inactive” throughout.
As for `O=C(Nc1ccc(-c2ccccc2)cc1)C1CCCN(Cc2ncccc2O)C1` (centres undefined), the inhibition entry in assay [1] and in assay [2] was “inactive” each time.
Turning to `O=C(NCc1ccc(-c2ccccc2)cc1)C1CCN(Cc2ccccc2O)CC1`, the inhibition result in assay [1] and in assay [2] was “inactive” in each case.
For `O=C1N(c2ccc(-c3ccccc3)cc2)C(=O)C2(CCN(Cc3ccccc3O)CC2)N1c1ncccn1`, the values for the IC50 in assay [3] and in assay [4] were 12.3 µM and greater than 25 µM, respectively.
Take `Cn1ccnc1CN1CCC2(CC1)C(=O)N(c1ccc(-c3ccccc3)cc1)C(=O)N2c1ncccn1`: the 50% inhibitory concentration (IC50) in assay [3] and in assay [4] was greater than 25 µM in each case.
On to `COc1ccnc(N2C(=O)N(c3ccc(-c4ccccc4)cc3)C(=O)C23CCN(Cc2ncccc2C)CC3)n1`, for which the concentration for half-maximal inhibition (IC50) in assay [3] was greater than 25 µM; in assay [4], 21.6 µM.
On to `O=C(Nc1ccc(-c2ccccc2)cc1)C1CCN(Cc2ncccc2O)CC1`, for which the inhibition result in assay [1] and in assay [2] was “inactive” each time.
On to `O=C(NCc1ccc(-c2ccccc2)cc1)C1CCN(Cc2ncccc2O)CC1`, for which the inhibition entry in assay [1] and in assay [2] was “inactive” in each case.
In assay [4], `Cc1cccnc1CN1CCC2(CC1)C(=O)N(c1ccc(-c3ccccc3)cc1)C(=O)N2c1ncccn1` registered an IC50 greater than 25 µM.
Regarding `Cc1cccnc1CN1CCC(C(=O)NCc2ccc(-c3ccccc3)cc2)CC1`, the inhibition entry in assay [1] and in assay [2] was “inactive” each time.
For `O=C1N(c2ccc(-c3ccccc3)cc2)C(=O)C2(CCN(Cc3ncc[nH]3)CC2)N1c1ncccn1`, the IC50 in assay [3] and in assay [4] was greater than 25 µM throughout.
Regarding `Cc1cccnc1CN1CCC2(CC1)NC(=O)N(c1ccc(-c3ccccc3)cc1)C2=O`, the 50% inhibitory concentration (IC50) in assay [3] and in assay [4] was greater than 25 µM throughout.
As for `Cc1cccnc1CN1CCCC(C(=O)Nc2ccc(-c3ccccc3)cc2)C1` (centres undefined), the inhibition result in assay [1] and in assay [2] was “inactive” each time.
Turning to `O=C(Nc1ccc(-c2ccccc2)cc1)C1CCCN(Cc2ccccc2O)C1` (centres undefined), the inhibition result in assay [1] and in assay [2] was “inactive” each time.
As to `Cn1ccnc1CN1CCC2(CC1)NC(=O)N(c1ccc(-c3ccccc3)cc1)C2=O`, the IC50 in assay [3] and in assay [4] was greater than 25 µM each time.
Consider `Cc1cccnc1CN1CCC2(CC1)C(=O)N(c1ccc(-c3ccccc3)cc1)C(=O)N2c1cc(C(=O)O)ccn1`, for which the IC50 in assay [3] and in assay [4] was greater than 25 µM in each case.
In the case of `O=C1N(c2ccc(-c3ccccc3)cc2)C(=O)C2(CCN(Cc3cccs3)CC2)N1c1ncccn1`, the IC50 in assay [3] and in assay [4] was greater than 25 µM throughout.
Take `O=C1N(c2ccc(-c3ccccc3)cc2)C(=O)C2(CCNCC2)N1c1ncccn1`: the IC50 in assay [3] and in assay [4] was greater than 25 µM each time.
